Source: patent US20040224958A1, “Pyridopyrimidinone derivatives for treatment of neurodegenerative disease” (priority 2000, published 2004)
pIC50: −log10 of the molar value.

Biological target: cdk4/D (Homo sapiens, UniProt P11802)
Experiment: Cyclin-Dependent Kinase 4 (cdk4) Assay
Type: biochemical
Settings: Table 1; read-out: cdk4/D IC50

Chain of cdk4/D (P11802 whole entry): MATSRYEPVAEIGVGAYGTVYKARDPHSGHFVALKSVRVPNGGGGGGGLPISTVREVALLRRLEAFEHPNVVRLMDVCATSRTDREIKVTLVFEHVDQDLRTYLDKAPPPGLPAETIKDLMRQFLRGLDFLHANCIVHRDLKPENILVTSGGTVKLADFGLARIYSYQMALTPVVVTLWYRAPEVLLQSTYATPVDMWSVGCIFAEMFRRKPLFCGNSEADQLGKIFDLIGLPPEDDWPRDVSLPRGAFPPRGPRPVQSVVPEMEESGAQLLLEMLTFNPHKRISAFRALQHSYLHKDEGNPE
Chain of cdk4/D (P24385 whole entry, further chain): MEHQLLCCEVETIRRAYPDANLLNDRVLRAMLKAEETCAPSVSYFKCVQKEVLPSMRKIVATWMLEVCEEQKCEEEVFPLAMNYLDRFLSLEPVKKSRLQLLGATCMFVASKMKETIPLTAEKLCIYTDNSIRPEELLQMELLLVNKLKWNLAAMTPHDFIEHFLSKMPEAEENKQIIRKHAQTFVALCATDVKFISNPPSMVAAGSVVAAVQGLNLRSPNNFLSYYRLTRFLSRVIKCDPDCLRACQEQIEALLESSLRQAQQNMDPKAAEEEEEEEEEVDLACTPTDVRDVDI

Point of comparison: `COC(=O)Cn1c(=O)ccc2cnc(Nc3ccccc3)nc21` [Example 36], pIC50 4.51. Against it:
- CCN(CC)CCOc1ccc(Nc2ncc3ccc(=O)n(CCOCc4ccccc4)c3n2)cc1 [Example 139] — 1.03 log units higher, 5.54

Same assay, conditions: Table 2, Formula II compounds; read-out: cdk4 IC50

In the case of `CCOC(=O)C=Cc1cnc(Nc2ccccc2)nc1N` [Example 28, Ethyl 3-(4-Amino-2-phenylamino-pyrimidin-5-yl)acrylate], the pIC50 was 4.19.

Tested on: not given
Experiment: not given
Settings: not given

Point of comparison: `COc1ccc(CNc2ncc3ccc(=O)n(C4CCCCC4)c3n2)cc1` [Example 225, 8-Cyclohexyl-2-(4-methoxy-benzylamino)-8H-pyrido[2,3-d]pyrimidin-7-one], melting point 165 °C. Against it:
- CCOC(=O)C=Cc1cnc(Nc2ccccc2)nc1N [Example 28, Ethyl 3-(4-Amino-2-phenylamino-pyrimidin-5-yl)acrylate] — higher, 190 to 192 °C
- COC(=O)Cn1c(=O)ccc2cnc(Nc3ccccc3)nc21 [Example 36] — higher, 232 to 233 °C
- O=c1ccc2cnc(Nc3ccc(N4CCSCC4)cc3)nc2n1C1CCCCC1 [Example 177, 8-Cyclohexyl-2-(4-thiomorpholin-4-yl-phenylamino)-8H-pyrido[2,3-d]pyrimidin-7-one] — higher, 213 to 214 °C
- CCN(CC)CCOc1ccc(Nc2ncc3ccc(=O)n(C4CCCCCC4)c3n2)cc1 [Example 156, 8-Cycloheptyl-2-[4-(2-diethylamino-ethoxy)-phenylamino]-8H-pyrido[2,3-d]pyrimidin-7-one] — lower, 121 to 122 °C
- CCC(C)n1c(=O)ccc2cnc(Nc3ccccc3)nc21 (stereo not shown) [Example 85, 8-sec-Butyl-2-phenylamino-8H-pyrido[2,3-d]pyrimidin-7-one] — lower, 155 to 156 °C
- O=c1ccc2cnc(Nc3ccc(N4CCC(CCCN5CCOCC5)CC4)cc3)nc2n1C1CC2CCC1C2 (stereo not shown) [Example 217, 8-Bicyclo[2.2.1]hept-2-yl-2-[4-[4-(3-morpholin-4-yl-propyl)-piperidin-1-yl]-phenylamino]-8H-pyrido[2,3-d]pyrimidin-7-one] — higher, 185 to 186 °C
- CC(C)n1c(=O)ccc2cnc(Nc3ccc(O)cc3)nc21 [Example 112, 2-(4-Hydroxy-phenylamino)-8-isopropyl-8H-pyrido[2,3-d]pyrimidin-7-one] — higher, 226 to 228 °C
- O=c1ccc2cnc(Nc3ccccc3)nc2n1C1CC2CCC1C2 (stereo not shown) [Example 180, 8-Bicyclo[2.2.1]hept-2-yl-2-phenylamino-8H-pyrido[2,3-d]pyrimidin-7-one] — higher, 225 to 226 °C
- CCNc1nc(Nc2ccccc2)ncc1C=CC#N [Example 72, 3-(4-Ethylamino-2-phenylamino-pyrimidin-5-yl)acrylonitrile] — higher, 244 to 246 °C
- O=c1ccc2cnc(Nc3ccc(N4CCCCC4)cc3)nc2n1CC1CCCCC1 [Example 183, 8-Cyclohexylmethyl-2-(4-piperidin-1-yl-phenylamino)-8H-pyrido[2,3-d]pyrimidin-7-one] — higher, 212 to 213 °C
- O=c1ccc2cnc(Nc3ccccc3)nc2n1CCCOc1ccccc1 [Example 87, 8-(3-Phenoxypropyl)-2-phenylamino-8H-pyrido[2,3-d]pyrimidin-7-one] — higher, 175 to 176 °C
- O=c1ccc2cnc(Nc3ccc(-n4cccn4)cc3)nc2n1C1CC2CCC1C2 (stereo not shown) [Example 218, 8-Bicyclo[2.2.1]hept-2-yl-2-(4-pyrazol-1-yl-phenylamino)-8H-pyrido[2,3-d]pyrimidin-7-one] — higher, 234 to 235 °C
- CCn1c(=O)ccc2cnc(NC(C)(C)C)nc21 [Example 46, 2-tert-Butylamino-8-ethyl-8H-pyrido[2,3-d]pyrimidin-7-one] — lower, 103 to 104 °C
- O=c1ccc2cnc(Nc3ccc(F)cc3)nc2n1C1CCCCCC1 [Example 184, 8-Cycloheptyl-2-(4-fluoro-phenylamino)-8H-pyrido[2,3-d]pyrimidin-7-one] — higher, 198 to 199 °C
- O=c1ccc2cnc(Nc3cccc(N4CCCCC4)c3)nc2n1C1CCCCCC1 [Example 201, 8-Cycloheptyl-2-(3-piperidin-1-yl-phenylamino)-8H-pyrido[2,3-d]pyrimidin-7-one] — lower, 123 to 124 °C
- CC(C)n1c(=O)ccc2cnc(Nc3ccc(N4CCC(CCCN5CCOCC5)CC4)cc3)nc21 [Example 260, 8-Isopropyl-2-{4-[4-(3-morpholin-4-yl-propyl)-piperidin-1-yl]-phenylamino}-8H-pyrido[2,3-d]pyrimidin-7-one] — higher, 195 to 196 °C
- CCNc1nc(Nc2ccccc2)ncc1CCC(=O)OCC [Example 68, 3-(4-Ethylamino-2-phenylamino-pyrimidin-5-yl)propionic acid ethyl ester] — lower, 106 to 107 °C
- CN1CCN(c2ccc(Nc3ncc4ccc(=O)n(-c5ccccc5)c4n3)cc2)CC1 [Example 113, 2-[4-(4-Methyl-piperazin-1-yl)-phenylamino]-8-phenyl-8H-pyrido[2,3-d]pyrimidin-7-one] — higher, 259 to 262 °C
- Cn1c(=O)ccc2cnc(N)nc21 [Example 62, 2-Amino-8-methyl-8H-pyrido[2,3-d]pyrimidin-7-one] — higher, 237 to 253 °C
- CCn1c(=O)ccc2cnc(NC3CCCCC3)nc21 [Example 48, 2-Cyclohexylamino-8-ethyl-8H-pyrido[2,3-d]pyrimidin-7-one] — lower, 135 to 136 °C
- CCn1c(=O)ccc2cnc(Nc3ccc(-c4ccccc4)cc3)nc21 [Example 49, 2-(Biphenyl-4-ylamino)-8-ethyl-8H-pyrido[2,3-d]pyrimidin-7-one] — higher, 207 to 208 °C
- CCN(CC)CCOc1ccc(Nc2ncc3ccc(=O)n(CCCOCc4ccccc4)c3n2)cc1 [Example 116, 8-(3-Benzyloxy-propyl)-2-[4-(2-diethylamino-ethoxy)-phenylamino]-8H-pyrido[2,3-d]pyrimidin-7-one] — lower, 70 to 72 °C
- O=c1ccc2cnc(Nc3ccc(-n4cccn4)cc3)nc2n1C1CCCC1 [Example 191, 8-Cyclopentyl-2-(4-pyrazol-1-yl-phenylamino)-8H-pyrido[2,3-d]pyrimidin-7-one] — higher, 197 to 198 °C
- CC(C)n1c(=O)ccc2cnc(Nc3ccccc3)nc21 [Example 43, 8-Isopropyl-2-phenylamino-8H-pyrido[2,3-d]pyrimidin-7-one] — higher, 170 to 171 °C
- O=c1ccc2cnc(Nc3ccccc3)nc2n1CC1CCCCC1 [Example 182, 8-Cyclohexylmethyl-2-phenylamino-8H-pyrido[2,3-d]pyrimidin-7-one] — higher, 230 to 231 °C
- CCn1c(=O)ccc2cnc(NCc3ccccc3)nc21 [Example 44, 2-Benzylamino-8-ethyl-8H-pyrido[2,3-d]pyrimidin-7-one] — lower, 96 to 97 °C
- O=c1ccc2cnc(NC3CCCCC3)nc2n1C1CCCCC1 [Example 153, 8-Cyclohexyl-2-cyclohexylamino-8H-pyrido[2,3-d]pyrimidin-7-one] — higher, 169 to 170 °C
- CCn1c(=O)ccc2cnc(Nc3ccc(-n4cccc4)cc3)nc21 [Example 110, 8-Ethyl-2-(4-pyrrol-1-yl-phenylamino)-8H-pyrido[2,3-d]pyrimidin-7-one] — higher, 220 to 222 °C
- CCNc1ncc2ccc(=O)n(-c3ccccc3)c2n1 [Example 100, 2-Ethylamino-8-phenyl-8H-pyrido[2,3-d]pyrimidin-7-one] — higher, 193 to 195 °C
- O=c1ccc2cnc(Nc3ccc(N4CCC(CCO)CC4)cc3)nc2n1C1CCCCC1 [Example 216, 8-Cyclohexyl-2-{4-[4-(2-hydroxy-ethyl)-piperidin-1-yl]-phenylamino}-8H-pyrido[2,3-d]pyrimidin-7-one] — higher, 236 to 237 °C
- Cn1c(=O)ccc2cnc(NCCc3ccccn3)nc21 [Example 66, 8-Methyl-2-(2-pyridin-2-yl-ethylamino)-8H-pyrido[2,3-d]pyrimidin-7-one] — lower, 155 to 156 °C
- CCCCNc1ncc2ccc(=O)n(C)c2n1 [Example 64, 2-Butylamino-8-methyl-8H-pyrido[2,3-d]pyrimidin-7-one] — lower, 146 to 147 °C
- CC1CN(c2ccc(Nc3ncc4ccc(=O)n(C5CCCCC5)c4n3)cc2)CC(C)N1CCO (stereo not shown) [Example 143, 8-Cyclohexyl-2-{4-[4-(2-hydroxy-ethyl)-3,5-dimethyl-piperazin-1-yl]-phenylamino}-8H-pyrido[2,3-d]pyrimidin-7-one] — higher, 175 to 177 °C
- CCNc1nc(Nc2ccccc2)ncc1C(C)=CC(=O)OCC [Example 73, 3-(4-Ethylamino-2-phenylamino-pyrimidin-5-yl)-but-2-enoic acid ethyl ester] — lower, 148 to 150 °C
- O=c1ccc2cnc(Nc3ccc(N4CCCC(CCCN5CCOCC5)C4)cc3)nc2n1C1CC2CCC1C2 (stereo not shown) [Example 262, 8-Bicyclo[2.2.1]hept-2-yl-2-{4-[3-(3-morpholin-4-yl-propyl)-piperidin-1-yl]-phenylamino}-8H-pyrido[2,3-d]pyrimidin-7-one] — lower, 156 to 157 °C
- CCOC(=O)N1CCC(n2c(=O)ccc3cnc(Nc4ccc(N5CCCCC5)cc4)nc32)CC1 [Example 246, 4-[7-Oxo-2-(4-piperidin-1-yl-phenylamino)-7H-pyrido[2,3-d]pyrimidin-8-yl]-piperidine-1-carboxylic acid ethyl ester] — higher, 231 to 233 °C
- CC(C)n1c(=O)ccc2cnc(Nc3ccc(OCCN4CCOCC4)cc3)nc21 [Example 141, 8-Isopropyl-2-[4-(2-morpholin-4-yl-ethoxy)-phenylamino]-8H-pyrido[2,3-d]pyrimidin-7-one] — lower, 118 to 119 °C
- CCN(CC)CCOc1ccc(Nc2ncc3ccc(=O)n(C(C)C)c3n2)cc1 [Example 59, 2-[4-(2-Diethylaminoethoxy)-phenylamino]-8-isopropyl-8H-pyrido[2,3-d]-pyrimidin-7-one] — lower, 84 to 85 °C
- COc1ccc(Cn2c(=O)ccc3cnc(Nc4ccccc4)nc32)cc1 [Example 58, 8-(4-Methoxybenzyl)-2-phenylamino-8H-pyrido[2,3-d]pyrimidin-7-one] — higher, 215 to 216 °C
- CCN(CC)CCOc1ccc(Nc2ncc3ccc(=O)n(CCOCc4ccccc4)c3n2)cc1 [Example 139] — lower, 95 to 97 °C
- CCCn1c(=O)ccc2cnc(Nc3ccccc3)nc21 [Example 41, 2-Phenylamino-8-propyl-8H-pyrido[2,3-d]pyrimidin-7-one] — lower, 163 to 164 °C

Biological target: cdk2/cyclinE (Homo sapiens, UniProt P24941)
Experiment: Cyclin-Dependent Kinase Assay cdk2/cyclinE
Settings: cdk2/E IC50, Table 1

For `CCN(CC)CCOc1ccc(Nc2ncc3ccc(=O)n(CCOCc4ccccc4)c3n2)cc1` [Example 139], the pIC50 was 5.58.
